The conditions of series [1]: in vivo; cited from earlier work.
The test system of series [2] is T1, recombinant human PDE4.
T1 construct: PDE4 IC50 (nM); other: recombinant human PDE4
The experiment in a line: PDE4 inhibition, recombinant human PDE4, [32P]cAMP charcoal separation assay. Type of series: biochemical. As to the method: The compounds of structural formula (II) were tested for an ability to inhibit PDE4. The ability of a compound to inhibit PDE4 activity is related to the IC50 value for the compound, i.e., the concentration of inhibitor required for 50% inhibition of enzyme activity. The IC50 value for compounds of structural formula (II) were determined using recombinant human PDE4.
The production of recombinant human PDEs and the IC50 determinations can be accomplished by well-known methods in the art. Exemplary methods are described as follows:
Recombinant production of human PDE1B, PDE2, PDE4A, PDE4B, PDE4C, PDE4D, PDE5, and PDE7 was carried out similarly to that described in Example 7 of U.S. Pat. No. 5,702,936, incorporated herein by reference, except that the yeast transformation vector employed, which is derived from the basic ADH2 plasmid described in Price et al., Methods in Enzymology, 135, pp. 308-318 (1990), incorporated. yeast ADH2 promoter and terminator sequences and the Saccharomyces cerevisiae host was the protease-deficient strain BJ2-54 deposited on Aug. 31, 1998 with the American Type Culture Collection, Manassas, Va., under accession number ATCC 74465. Transformed host cells were grown in 2×SC-leu medium, pH 6.2, with trace metals, and vitamins. After 24 hours, YEP medium-containing glycerol was added to a final concentration of 2×YET/3% glycerol. Approximately 24 hr later, cells were harvested, washed, and stored at −70° C.
Phosphodiesterase activity of the preparations was determined as follows. PDE assays utilizing a charcoal separation technique were performed essentially as described in Loughney et al. (1996). In this assay, PDE activity converts [32P]cAMP or [32P]cGMP to the corresponding [32P]5′-AMP or [32P]5′-GMP in proportion to the amount of PDE activity present. The [32P]5′-AMP or [32P]5′-GMP then was quantitatively converted to free [32P]phosphate and unlabeled adenosine or guanosine by the action of snake venom 5′-nucleotidase. […] The assay was performed at 30° C. in a 100 μL reaction mixture containing (final concentrations) 40 mM Tris HCl (pH 8.0), 1 μM ZnSO4, 5 mM MgCl2, and 0.1 mg/mL bovine serum albumin (BSA) Alternatively, in assays assessing PDE1-specific activity, incubation mixtures further incorporated the use of 0.1 mM CaChe and 10 μg/mL calmodulin. PDE enzyme was present in quantities that yield<30% total hydrolysis of substrate (linear assay conditions). The assay was initiated by addition of substrate ([…] [32P]cAMP or cGMP), and the mixture was incubated for 12 minutes. […] After centrifugation (750×g for 3 minutes) to sediment the charcoal, a sample of the supernatant was taken for radioactivity determination in a scintillation counter and the PDE activity was calculated.

The subject of series [3] is recombinant human PDE4. The conditions noted are these: reported value, background section; read-out: IC50 with respect to inhibiting recombinant human PDE4; cited from earlier work.

Read-outs that look alike come from different tables or passages of the source.

Usually IC50 stands for the concentration that gives 50% inhibition.

On to R-rolipram, for which, in series [1], the “Emetic potential relative to the (+)-enantiomer (S-rolipram)” value is reported as “about ten-fold more emetic”.
`CCc1nn(C2CCCC2)c2cc([C@@H]3CN(Cc4ccccc4)C[C@@]3(C)C(C)O)ccc12` (stereo partly drawn) [Example 2, (1R)-1-[(3S,4S)-4-(1-Cyclopentyl-3-ethyl(1H-indazol-6-yl))-3-methyl-1-benzylpyrrolidin-3-yl]ethan-1-ol]: in the series with recombinant human PDE4 [2], the IC50 is 87.6 nM.
With `CCc1nn(C2CCCC2)c2cc([C@@H]3CN(Cc4ccccc4)C[C@@]3(C)C(C)O)ccc12` (stereo partly drawn) [Example 1, (1S)-1-[(3S,4S)-4-(1-Cyclopentyl-3-ethyl(1H-indazol-6-yl))-3-methyl-1-benzylpyrrolidin-3-yl]ethan-1-ol], in the series with recombinant human PDE4 [2], the half-inhibitory concentration (IC50) was 316 nM.
Consider `COc1ccc(C2CNC(=O)C2)cc1OC1CCCC1` (stereo not shown) [Rolipram, rolipram], for which the IC50 in the series with recombinant human PDE4 [3] is around 200 nM.
Take `CCc1nn(C2CCCC2)c2cc([C@@H]3CN(Cc4ccccc4)C[C@@]3(C)CO)ccc12` [Example 3, [(3S,4S)-4-(1-Cyclopentyl-3-ethyl(1H-indazol-6-yl))-3-methyl-1-benzylpyrrolidin-3-yl]methan-1-ol]: the half-inhibitory concentration (IC50) in the series with recombinant human PDE4 [2] is 6.1 nM.
With `COC(=O)N1CC(c2ccc(OC)c(OC3CCCC3)c2)C(C)(C(C)=O)C1` (stereo not shown) [formula (I)], the IC50 in the series with recombinant human PDE4 [3] was around 2 nM.
Turning to `CCc1nn(C2CCCC2)c2cc([C@@H]3CN(C(=O)OC)C[C@@]3(C)CO)ccc12` [Example 4, Methyl (3S,4S)-4-(1-cyclopentyl-3-ethyl(1H-indazol-6-yl))-3-(hydroxymethyl)-3-methyl Pyrrolidine Carboxylate], the IC50 with recombinant human PDE4 [2] amounted to 79.3 nM.

Values taken from patent publication US6444671B1, “Cyclic AMP-specific phosphodiesterase inhibitors” (ICOS Corporation, priority 1999, dated 2002).
